Molecules are shown by their SMILES.

A short description of the assay: In vitro thromboxane A2 antagonistic activity on aggregation of rabbit platelets induced by U-46,619 (4 uM).
As a reminder, the IC50 is the concentration that gives 50% inhibition. Regarding `O=C(O)Cc1ccc2c(c1)CC(CCCNS(=O)(=O)c1ccc(Cl)cc1)C2` (stereo unspecified) [Sodium; {2-[3-(4-chloro-benzenesulfonylamino)-propyl]-indan-5-yl}-acetate], half-maximal inhibition (IC50) required 72.3 µM.
As for `O=C(O)c1ccc2c(c1)CC(CCCNS(=O)(=O)c1ccc(Cl)cc1)C2` (stereo unspecified) [Sodium; 2-[3-(4-chloro-benzenesulfonylamino)-propyl]-indan-5-carboxylate], the figure is 6.6 µM; as for `O=C(O)Cc1ccc2c(c1)CC(CNS(=O)(=O)c1ccccc1)C2` (stereo unspecified) [Sodium; [2-(benzenesulfonylamino-methyl)-indan-5-yl]-acetate], 1.02 µM.
As for `O=C(O)Cc1ccc2c(c1)CC(CNS(=O)(=O)c1ccc(Cl)cc1)C2` (stereo unspecified) [Sodium; {2-[(4-chloro-benzenesulfonylamino)-methyl]-indan-5-yl}-acetate], the figure is 0.36 µM; as for `O=C(O)Cc1ccc2c(c1)CC(CNS(=O)(=O)C1CCCCC1)C2` (stereo unspecified) [Sodium; [2-(cyclohexanesulfonylamino-methyl)-indan-5-yl]-acetate], 17.8 µM; as for `O=C(O)Cc1ccc2c(c1)CC(CNS(=O)(=O)c1cccs1)C2` (stereo unspecified) [Sodium; {2-[(thiophene-2-sulfonylamino)-methyl]-indan-5-yl}-acetate], 2.81 µM.
`O=C(O)Cc1ccc2c(c1)CC(CNS(=O)(=O)c1ccc3ccccc3c1)C2` (stereo unspecified) [Sodium; {2-[(naphthalene-2-sulfonylamino)-methyl]-indan-5-yl}-acetate] yielded an IC50 of 0.95 µM.
The molecule `O=C(O)Cc1ccc2c(c1)CC(CNS(=O)(=O)Cc1ccccc1)C2` (stereo unspecified) [Sodium; [2-(phenylmethanesulfonylamino-methyl)-indan-5-yl]-acetate] showed a concentration for half-maximal inhibition (IC50) of more than 100 µM.
As for `O=C(O)CCCc1ccc2c(c1)CC(CNS(=O)(=O)c1ccc(Cl)cc1)C2` (stereo unspecified) [Sodium; 4-{2-[(4-chloro-benzenesulfonylamino)-methyl]-indan-5-yl}-butyrate], the figure is 1.34 µM.
As for `O=C(O)CCCCc1ccc2c(c1)CC(CNS(=O)(=O)c1ccc(Cl)cc1)C2` (stereo unspecified) [Sodium; 5-{2-[(4-chloro-benzenesulfonylamino)-methyl]-indan-5-yl}-pentanoate], the figure is 2.88 µM; as for `O=C(O)Cc1ccc2c(c1)CC(NS(=O)(=O)c1ccc(Cl)cc1)C2` (stereo unspecified) [Sodium; [2-(4-chloro-benzenesulfonylamino)-indan-5-yl]-acetate], 0.36 µM; as for `O=C(O)Cc1ccc2c(c1)CC(CCCCNS(=O)(=O)c1ccc(Cl)cc1)C2` (stereo unspecified) [Sodium; {2-[4-(4-chloro-benzenesulfonylamino)-butyl]-indan-5-yl}-acetate], more than 100 µM.
As for `O=C(O)Cc1ccc2c(c1)CC(CNS(=O)(=O)c1cccc3ccccc13)C2` (stereo unspecified) [Sodium; {2-[(naphthalene-1-sulfonylamino)-methyl]-indan-5-yl}-acetate], the figure is 47.9 µM; as for `O=C(O)Cc1ccc2c(c1)CC(CNS(=O)(=O)c1cccnc1)C2` (stereo unspecified) [Sodium; {2-[(pyridine-3-sulfonylamino)-methyl]-indan-5-yl}-acetate], more than 100 µM.
The molecule `O=C(O)c1ccc2c(c1)CC(CCCCNS(=O)(=O)c1ccc(Cl)cc1)C2` (stereo unspecified) [Sodium; 2-[4-(4-chloro-benzenesulfonylamino)-butyl]-indan-5-carboxylate] registered an IC50 of 100 µM.
The molecule `O=C(O)Cc1ccc2c(c1)CC(CNS(=O)(=O)c1ccc(Cl)cc1)O2` (stereo unspecified) [Sodium; {2-[(4-chloro-benzenesulfonylamino)-methyl]-2,3-dihydro-benzofuran-5-yl}-acetate] gave an IC50 of 0.32 µM.
As for `O=C(O)CCc1ccc2c(c1)CC(CNS(=O)(=O)c1ccc(Cl)cc1)C2` (stereo unspecified) [Sodium; 3-{2-[(4-chloro-benzenesulfonylamino)-methyl]-indan-5-yl}-propionate], the figure is 0.16 µM; as for `O=C(O)c1ccc2c(c1)CC(CNS(=O)(=O)c1ccc(Cl)cc1)C2` (stereo unspecified) [Sodium; 2-[(4-chloro-benzenesulfonylamino)-methyl]-indan-5-carboxylate], 1.32 µM.
In the case of `CCCCCS(=O)(=O)NCC1Cc2ccc(CC(=O)O)cc2C1` (stereo unspecified) [Sodium; {2-[(pentane-1-sulfonylamino)-methyl]-indan-5-yl}-acetate], it took 77.6 µM to reach half-maximal inhibition (IC50).
As for `O=C(O)Cc1ccc2c(c1)CC(CCNS(=O)(=O)c1ccc(Cl)cc1)C2` (stereo unspecified) [Sodium; {2-[2-(4-chloro-benzenesulfonylamino)-ethyl]-indan-5-yl}-acetate], the figure is 1.48 µM.
Turning to `O=C(O)c1ccc2c(c1)CC(CCNS(=O)(=O)c1ccc(Cl)cc1)C2` (stereo unspecified) [Sodium; 2-[2-(4-chloro-benzenesulfonylamino)-ethyl]-indan-5-carboxylate], the IC50 is 7.76 µM.

The values are drawn from BindingDB's records for doi:10.1016/s0960-894x(99)00014-1 (Zeria Pharmaceutical, 1999).
